This test deals with human P2X7 receptor (Homo sapiens, UniProt Q99572, R270H/Y155H). As to the kind of experiment: Evaluation of a human P2X7 receptor inhibitory activity (Yo-Pro uptake, BzATP stimulation, FLIPR TETRA). The format is cell-based. The procedure:
Test Example 1 Evaluation of a Human P2X7 Receptor Inhibitory Activity
Stably expressing cell line (1321N1 cell transfected with the human P2X7 receptor gene (GenBank accession number NM_002502.5 including T606C and G952A SNP)) was used. The cells were seeded in a 384-well microtiter plate at a concentration of 8000 cells/well and cultured in the medium (10% fetal bovine serum, 25 mM HEPES, 1% penicillin and streptomycin in DMEM) for one day at 37° C. under 5% carbon dioxide atmosphere. After replacing with 20 μL of the HBSS buffer (20 mM HEPES, 55.6 mM D-glucose, 1×HBSS(−), pH7.4-7.5). 16 μL of 17.3 μM Yo-Pro solution in the HBSS buffer was added. The plate was placed in high-throughput cellular screening system FLIPR TETRA (Molecullar Devices, LLC.) and 15 μL of 130 μM BzATP solution in the HBSS buffer was added. Measurement, of fluorescence intensity by FLIPR TETRA was started. After eight minutes, 15 μL of DMSO solutions containing different concentrations of the compound of the present invention as prepared by dilution with the HBSS buffer were dispensed to each well through the built-in automatic dispenser, and the measurement of fluorescence intensity was continued for 20 minutes. […] Changing values of fluorescence intensity by the compound of the present invention were calculated by difference between maximum and minimum fluorescence intensity for 20 minutes. Inhibition ratios (%) were calculated from the following equation:
[formula] IC50 was calculated using Logistic approximation.

Setting [1] is: 1321N1 cells expressing human P2X7 receptor, BzATP stimulation, Yo-Pro uptake, read-out: IC50 (antagonistic activity for the human P2X7 receptor), class.
Where [2] appears, read: antagonistic activity for the human P2X7 receptor, 1321N1 cells expressing human P2X7, BzATP-stimulated Yo-Pro uptake, read-out: IC50.
The mark [3] stands for this setting: 1321N1 cells expressing human P2X7 receptor, BzATP stimulation, Yo-Pro uptake, read-out: IC50 (antagonistic activity for the human P2X7 receptor).

pIC50: −log10 of the molar value. Where two headings read alike, the source gives them in different places.

On to `COc1cc(Nc2nc(=O)c(OC)cn2Cc2ccc(F)cc2)c(C)cc1Cl` [Compound I-0475], for which the pIC50 under setting [1] is over 8.00.

On to `CCOc1ccc(C)c(Nc2nc(=O)c(OC)cn2Cc2ccc(F)c(F)c2)c1` [Compound I-0457], for which, under setting [1], the pIC50 is over 8.00.

As for `COC1CN(Cc2ccc(F)c(F)c2)C(Nc2cc(S(C)(=O)=O)c(C)cc2C)=NC1=O` (stereo not drawn) [Compound I-0605], the pIC50 under setting [2] is 7.00 to 8.00.

With `COc1cn(Cc2ccc(F)c(Cl)c2)c(Oc2cc(C)c(C)cc2C)nc1=O` [Compound I-0358], the pIC50 under setting [3] is 6.80.

Regarding `COc1cc(C)c(Nc2nc(=O)c(OC)cn2Cc2cc(F)cc(Cl)c2)cc1C` [Compound I-0446], under setting [1], the pIC50 was over 8.00.

Consider `COc1cn(Cc2ccc(F)c(Cl)c2)c(Nc2cc3sc(C)nc3cc2C)cc1=O` [Compound I-0033], for which the pIC50 under setting [3] is 7.31.

For the compound `COc1cn(Cc2ccccc2)c(Oc2cc(C)c(C)cc2C)nc1=O` [Compound I-0357], under setting [1], the pIC50 was 6.00 to 6.30.

On to `COc1ccc(NC2=NC(=O)CC(C)N2Cc2cc(F)c(F)c(F)c2)c(C)c1` (stereo not drawn) [Compound I-1167], for which the pIC50 under setting [2] was over 8.00.

As to `CCc1ccc(F)cc1Nc1nc(=O)c(OC)cn1Cc1ccccc1` [Compound I-0450], the pIC50 under setting [1] was 7.00 to 8.00.

In the case of `COc1cc(C)c(Nc2nc(=O)cc(C)n2Cc2cc(F)c(F)c(F)c2)cc1OC` [Compound I-1153], the pIC50 under setting [2] is over 8.00.

For the compound `COc1cccc(Nc2nc(=O)c(OC)cn2Cc2cccc(Cl)c2)c1C` [Compound I-0476], the pIC50 under setting [1] is over 8.00.

As for `COc1cccc(Nc2nc(=O)c(OC)cn2Cc2ccc(F)c(F)c2)c1C` [Compound I-0477], under setting [1], the pIC50 is over 8.00.

As to `COc1cn(Cc2ccc(F)c(Cl)c2)c(Nc2cc(S(C)(=O)=O)c(C)cc2C)nc1=O` [Compound I-0449], the pIC50 under setting [1] was over 8.00.

Take `Cc1cc(F)c(-c2cccn(C)c2=O)cc1Nc1nc(=O)c(F)cn1Cc1cc(F)c(F)c(F)c1` [Compound I-1222]: under setting [2], the pIC50 is over 8.00.

Regarding `CCOc1ccc(C)c(Nc2nc(=O)c(OC)cn2Cc2ccc(F)c(Cl)c2)c1` [Compound I-0459], the pIC50 under setting [1] is over 8.00.

With `COc1cc(C)c(Nc2nc(=O)c(OC)cn2Cc2cccc(F)c2)cc1C` [Compound I-0249], the pIC50 under setting [1] was over 8.00.

Consider `COc1cccc(Nc2nc(=O)c(OC)cn2Cc2ccc(F)c(Cl)c2)c1C` [Compound I-0478], for which the pIC50 under setting [1] is over 8.00.

`COc1cn(Cc2cccc(OC(F)F)c2)c(Nc2cccc(Cl)c2C)nc1=O` [Compound I-0422]: the pIC50 under setting [1] was 6.00 to 6.30.

Consider `COc1cn(Cc2ccccc2)c(Nc2ccc(C)cc2F)nc1=O` [Compound I-0762], for which, under setting [2], the pIC50 was 6.30 to 7.00.

As to `Cc1c(Cl)cccc1Nc1nc(=O)c(OOC(C)(C)C)cn1Cc1ccccc1` [Compound I-0111], the pIC50 under setting [1] was 6.30 to 7.00.

As for `COc1cc(C)c(Nc2nc(=O)c(OC)cn2Cc2ccc(F)c(Cl)c2)cc1Cl` [Compound I-0465], the pIC50 under setting [1] was over 8.00.

In the case of `COc1cn(Cc2cc(F)c(F)c(F)c2)c(Cc2cccc3[nH]c(=O)ccc23)nc1=O` [Compound I-0602], the pIC50 under setting [2] was 6.30 to 7.00.

`COc1cn(Cc2cc(F)cc(Cl)c2)c(Nc2ccc(C)cc2C)nc1=O` [Compound I-0462]: the pIC50 under setting [1] is 7.00 to 8.00.

With `COc1cn(Cc2ccccc2)c(Nc2cc(S(C)(=O)=O)c(C)cc2C)nc1=O` [Compound I-0448], the pIC50 under setting [1] is 7.00 to 8.00.

As to `COc1cn(Cc2ccccc2)c(Nc2cccc(C)c2Cl)nc1=O` [Compound I-0112], under setting [1], the pIC50 is 7.00 to 8.00.

For `COc1cn(Cc2cc(F)cc(F)c2)c(Nc2ccc(C)cc2C)nc1=O` [Compound I-0463], the pIC50 under setting [1] was over 8.00.

As for `CCOc1ccc(C)c(Nc2nc(=O)c(OC)cn2Cc2cc(F)cc(Cl)c2)c1` [Compound I-0460], the pIC50 under setting [1] is 7.00 to 8.00.

In the case of `COc1cn(Cc2ccc(F)c(F)c2)c(Nc2ccc(C)cc2C)nc1=O` [Compound I-0461], the pIC50 under setting [1] is over 8.00.

With `COc1cc(Nc2nc(=O)c(OC)cn2Cc2cccc(F)c2)c(C)cc1Cl` [Compound I-0474], the pIC50 under setting [1] was over 8.00.

Take `COc1cn(Cc2cccc(Cl)c2)c(Nc2cccc(C(F)(F)F)c2C)nc1=O` [Compound I-0466]: the pIC50 under setting [1] is 7.00 to 8.00.

As to `CCc1cc(OC)ccc1Nc1nc(=O)c(OC)cn1Cc1cc(F)cc(Cl)c1` [Compound I-0447], the pIC50 under setting [1] was over 8.00.

Consider `COc1cn(Cc2ccc(F)c(Cl)c2)c(Nc2c(C)cc3c(c2C)COC3)nc1=O` [Compound I-0907], for which the pIC50 under setting [2] was over 8.00.

Regarding `COc1cn(Cc2cc(F)cc(F)c2)c(NCc2cccc(Cl)c2C)nc1=O` [Compound I-0452], the pIC50 under setting [3] is 6.96.

For the compound `CCOc1ccc(C)c(Nc2nc(=O)c(OC)cn2Cc2cc(F)cc(F)c2)c1` [Compound I-0458], the pIC50 under setting [1] is 7.00 to 8.00.

`COc1cn(Cc2cc(F)cc(Cl)c2)c(Nc2cc(OCC(F)(F)F)ccc2C)nc1=O` [Compound I-0498]: the pIC50 under setting [1] is 6.30 to 7.00.

As for `COc1cc(C)c(Nc2nc(=O)c(OC)cn2Cc2ccccc2)cc1Cl` [Compound I-0464], under setting [1], the pIC50 is over 8.00.

By pIC50 is commonly meant the IC50 on a negative log10 scale, so that one unit is a factor of ten.
